# Source: ChEMBL document CHEMBL3885881, “DrugMatrix”
# Organism: Rattus norvegicus
# Experiment: DrugMatrix - Regimen: Daily Repeat
# Type: toxicity, organism-based, Sprague-Dawley
# Set-up: regimen Daily Repeat, gender Male, age 6-8 weeks
# Conditions: in vivo, sc, route subcutaneous, […]; for ABSOLUTE BASOPHIL / ABSOLUTE EOSINOPHIL / ABSOLUTE LYMPHOCYTE / ABSOLUTE MONOCYTE / ABSOLUTE SEGMENTED NEUTROPHIL / BASOPHIL / EOSINOPHIL / ERYTHROCYTE COUNT / HEMATOCRIT / HEMOGLOBIN / LEUKOCYTE COUNT / LYMPHOCYTE / MEAN CORPUSCULAR HEMOGLOBIN / MEAN CORPUSCULAR HEMOGLOBIN CONCENTRATION / MEAN CORPUSCULAR VOLUME / MONOCYTE / NEUTROPHIL / NUCLEATED RED BLOOD CELLS / PLATELET COUNT: tissue Blood; for ALANINE AMINOTRANSFERASE / ALBUMIN / ALKALINE PHOSPHATASE / ASPARTATE AMINOTRANSFERASE / BLOOD UREA NITROGEN / CARBON DIOXIDE / CHLORIDE / CHOLESTEROL / CREATINE PHOSPHOKINASE / CREATININE / GLUCOSE / LACTATE DEHYDROGENASE / LIPASE / PHOSPHORUS / POTASSIUM / SODIUM / TOTAL BILIRUBIN / TOTAL PROTEIN / URIC ACID: tissue Plasma
# [1] = 260 mg/kg, 72 h, dose level Low, time 3 day
# [2] = 260 mg/kg, 120 h, dose level Low, time 5 day
# [3] = 2600 mg/kg, 72 h, dose level High, time 3 day
# [4] = 2600 mg/kg, 120 h, dose level High, time 5 day
smiles,measurement,setting,value
c1ccc2sc(SSc3nc4ccccc4s3)nc2c1 [BENZOTHIAZYL DISULFIDE],ABSOLUTE BASOPHIL,[1],0 CELLS/uL
same,ABSOLUTE EOSINOPHIL,[1],108 CELLS/uL
same,ABSOLUTE LYMPHOCYTE,[1],9435.33 CELLS/uL
same,ABSOLUTE MONOCYTE,[1],328 CELLS/uL
same,ABSOLUTE SEGMENTED NEUTROPHIL,[1],1062 CELLS/uL
same,BASOPHIL,[1],0%
same,EOSINOPHIL,[1],1%
same,ERYTHROCYTE COUNT,[1],5.25 x10E6/uL
same,HEMATOCRIT,[1],33.03%
same,HEMOGLOBIN,[1],12.27 G/DL
same,LEUKOCYTE COUNT,[1],10.93 x10E3/uL
same,LYMPHOCYTE,[1],86.33%
same,MEAN CORPUSCULAR HEMOGLOBIN,[1],23.33 pg
same,MEAN CORPUSCULAR HEMOGLOBIN CONCENTRATION,[1],37.13 G/DL
same,MEAN CORPUSCULAR VOLUME,[1],62.87 fL
same,MONOCYTE,[1],3%
same,NEUTROPHIL,[1],9.67%
same,NUCLEATED RED BLOOD CELLS,[1],0 /100WBC
same,PLATELET COUNT,[1],1377.33 x10E3/uL
same,ALANINE AMINOTRANSFERASE,[1],42 u/L
same,ALBUMIN,[1],3.87 G/DL
same,ALKALINE PHOSPHATASE,[1],365.33 u/L
same,ASPARTATE AMINOTRANSFERASE,[1],91.67 u/L
same,BLOOD UREA NITROGEN,[1],16 mg/dL
same,CARBON DIOXIDE,[1],26 mmol/L
same,CHLORIDE,[1],105.33 MEQ/L
same,CHOLESTEROL,[1],77.33 mg/dL
same,CREATINE PHOSPHOKINASE,[1],411.33 u/L
same,CREATININE,[1],0.21 mg/dL
same,GLUCOSE,[1],149.33 mg/dL
same,LACTATE DEHYDROGENASE,[1],600.33 u/L
same,LIPASE,[1],8.67 u/L
same,PHOSPHORUS,[1],12.73 mg/dL
same,POTASSIUM,[1],6.51 MEQ/L
same,SODIUM,[1],145.03 MEQ/L
same,TOTAL BILIRUBIN,[1],0.17 mg/dL
same,TOTAL PROTEIN,[1],5.4 G/DL
same,URIC ACID,[1],1.47 mg/dL
same,ABSOLUTE BASOPHIL,[2],0 CELLS/uL
same,ABSOLUTE EOSINOPHIL,[2],214.33 CELLS/uL
same,ABSOLUTE LYMPHOCYTE,[2],15055 CELLS/uL
same,ABSOLUTE MONOCYTE,[2],283.33 CELLS/uL
same,ABSOLUTE SEGMENTED NEUTROPHIL,[2],1280.67 CELLS/uL
same,BASOPHIL,[2],0%
same,EOSINOPHIL,[2],1.33%
same,ERYTHROCYTE COUNT,[2],5.49 x10E6/uL
same,HEMATOCRIT,[2],34.87%
same,HEMOGLOBIN,[2],13.17 G/DL
same,LEUKOCYTE COUNT,[2],16.83 x10E3/uL
same,LYMPHOCYTE,[2],89.33%
same,MEAN CORPUSCULAR HEMOGLOBIN,[2],24.1 pg
same,MEAN CORPUSCULAR HEMOGLOBIN CONCENTRATION,[2],37.8 G/DL
same,MEAN CORPUSCULAR VOLUME,[2],63.7 fL
same,MONOCYTE,[2],1.67%
same,NEUTROPHIL,[2],7.67%
same,NUCLEATED RED BLOOD CELLS,[2],0.67 /100WBC
same,PLATELET COUNT,[2],1489.67 x10E3/uL
same,ALANINE AMINOTRANSFERASE,[2],39 u/L
same,ALBUMIN,[2],3.93 G/DL
same,ALKALINE PHOSPHATASE,[2],463.33 u/L
same,ASPARTATE AMINOTRANSFERASE,[2],92.67 u/L
same,BLOOD UREA NITROGEN,[2],18.33 mg/dL
same,CARBON DIOXIDE,[2],28.33 mmol/L
same,CHLORIDE,[2],105.33 MEQ/L
same,CHOLESTEROL,[2],70.67 mg/dL
same,CREATINE PHOSPHOKINASE,[2],529 u/L
same,CREATININE,[2],0.19 mg/dL
same,GLUCOSE,[2],169 mg/dL
same,LACTATE DEHYDROGENASE,[2],102.33 u/L
same,LIPASE,[2],8 u/L
same,PHOSPHORUS,[2],12.13 mg/dL
same,POTASSIUM,[2],6.59 MEQ/L
same,SODIUM,[2],147.43 MEQ/L
same,TOTAL BILIRUBIN,[2],0.2 mg/dL
same,TOTAL PROTEIN,[2],5.63 G/DL
same,URIC ACID,[2],1.63 mg/dL
same,ABSOLUTE BASOPHIL,[3],0 CELLS/uL
same,ABSOLUTE EOSINOPHIL,[3],50.67 CELLS/uL
same,ABSOLUTE LYMPHOCYTE,[3],11758.67 CELLS/uL
same,ABSOLUTE MONOCYTE,[3],266.67 CELLS/uL
same,ABSOLUTE SEGMENTED NEUTROPHIL,[3],857.33 CELLS/uL
same,BASOPHIL,[3],0%
same,EOSINOPHIL,[3],0.33%
same,ERYTHROCYTE COUNT,[3],5.31 x10E6/uL
same,HEMATOCRIT,[3],32.77%
same,HEMOGLOBIN,[3],12.3 G/DL
same,LEUKOCYTE COUNT,[3],12.93 x10E3/uL
same,LYMPHOCYTE,[3],91.33%
same,MEAN CORPUSCULAR HEMOGLOBIN,[3],23.2 pg
same,MEAN CORPUSCULAR HEMOGLOBIN CONCENTRATION,[3],37.53 G/DL
same,MEAN CORPUSCULAR VOLUME,[3],61.7 fL
same,MONOCYTE,[3],2%
same,NEUTROPHIL,[3],6.33%
same,NUCLEATED RED BLOOD CELLS,[3],0 /100WBC
same,PLATELET COUNT,[3],1463.67 x10E3/uL
same,ALANINE AMINOTRANSFERASE,[3],24.33 u/L
same,ALBUMIN,[3],3.73 G/DL
same,ALKALINE PHOSPHATASE,[3],327.67 u/L
same,ASPARTATE AMINOTRANSFERASE,[3],90.67 u/L
same,BLOOD UREA NITROGEN,[3],16 mg/dL
same,CARBON DIOXIDE,[3],24 mmol/L
same,CHLORIDE,[3],104 MEQ/L
same,CHOLESTEROL,[3],76.33 mg/dL
same,CREATINE PHOSPHOKINASE,[3],376.67 u/L
same,CREATININE,[3],0.16 mg/dL
same,GLUCOSE,[3],151.67 mg/dL
same,LACTATE DEHYDROGENASE,[3],543.33 u/L
same,LIPASE,[3],8.33 u/L
same,PHOSPHORUS,[3],12 mg/dL
same,POTASSIUM,[3],6.59 MEQ/L
same,SODIUM,[3],145.13 MEQ/L
same,TOTAL BILIRUBIN,[3],0.3 mg/dL
same,TOTAL PROTEIN,[3],5.2 G/DL
same,URIC ACID,[3],1.63 mg/dL
same,ABSOLUTE BASOPHIL,[4],0 CELLS/uL
same,ABSOLUTE EOSINOPHIL,[4],0 CELLS/uL
same,ABSOLUTE LYMPHOCYTE,[4],11990.67 CELLS/uL
same,ABSOLUTE MONOCYTE,[4],262 CELLS/uL
same,ABSOLUTE SEGMENTED NEUTROPHIL,[4],914 CELLS/uL
same,BASOPHIL,[4],0%
same,EOSINOPHIL,[4],0%
same,ERYTHROCYTE COUNT,[4],5.81 x10E6/uL
same,HEMATOCRIT,[4],36.07%
same,HEMOGLOBIN,[4],13.33 G/DL
same,LEUKOCYTE COUNT,[4],13.17 x10E3/uL
same,LYMPHOCYTE,[4],91%
same,MEAN CORPUSCULAR HEMOGLOBIN,[4],22.97 pg
same,MEAN CORPUSCULAR HEMOGLOBIN CONCENTRATION,[4],36.97 G/DL
same,MEAN CORPUSCULAR VOLUME,[4],62.1 fL
same,MONOCYTE,[4],2%
same,NEUTROPHIL,[4],7%
same,NUCLEATED RED BLOOD CELLS,[4],0 /100WBC
same,PLATELET COUNT,[4],1293.33 x10E3/uL
same,ALANINE AMINOTRANSFERASE,[4],31 u/L
same,ALBUMIN,[4],3.6 G/DL
same,ALKALINE PHOSPHATASE,[4],266.33 u/L
same,ASPARTATE AMINOTRANSFERASE,[4],72 u/L
same,BLOOD UREA NITROGEN,[4],14.67 mg/dL
same,CARBON DIOXIDE,[4],26.33 mmol/L
same,CHLORIDE,[4],105.67 MEQ/L
same,CHOLESTEROL,[4],83 mg/dL
same,CREATINE PHOSPHOKINASE,[4],133 u/L
same,CREATININE,[4],0.23 mg/dL
same,GLUCOSE,[4],156 mg/dL
same,LACTATE DEHYDROGENASE,[4],67.67 u/L
same,LIPASE,[4],8.67 u/L
same,PHOSPHORUS,[4],12.23 mg/dL
same,POTASSIUM,[4],6.11 MEQ/L
same,SODIUM,[4],145.9 MEQ/L
same,TOTAL BILIRUBIN,[4],0.1 mg/dL
same,TOTAL PROTEIN,[4],5.63 G/DL
same,URIC ACID,[4],2 mg/dL
